# Results: patent US10047086B2, “Imidazopyridines and imidazopyrazines as LSD1 inhibitors” (Incyte Corporation, priority 2014, dated 2018)
# Target: LSD-1 enzyme (Homo sapiens (Human), UniProt O60341)
# Assay: LANCE LSD1/KDM1A demethylase assay (LSD1 histone demethylase biochemical assay)
# Details: 1 nM LSD-1 enzyme, 1 hour preincubation at 25° C., 0.4 μM Biotin-labeled Histone H3 peptide substrate
# Method: LSD1 Histone Demethylase Biochemical Assay
# LANCE LSD1/KDM1A demethylase assay-10 μL of 1 nM LSD-1 enzyme (ENZO BML-SE544-0050) in the assay buffer (50 mM Tris, pH 7.5, 0.01% Tween-20, 25 mM NaCl, 5 mM DTT) were preincubated for 1 hour at 25° C. with 0.8 μL compound/DMSO dotted in black 384 well polystyrene plates. […] Reactions were stopped by addition of 10 μL 1× LANCE Detection Buffer (PerkinElmer CR97-100) supplemented with 1.5 nM Eu-anti-unmodified H3K4 Antibody (PerkinElmer TRF0404), and 225 nM LANCE Ultra Streptavidin (PerkinElmer TRF102) along with 0.9 mM Tranylcypromine-HCl (Millipore 616431). After stopping the reactions plates were incubated for 30 minutes and read on a PHERAstar FS plate reader (BMG Labtech).
row,Structure (SMILES),IC50 [µM]
1,"CN1CCC[C@@H](COc2cc(-c3ccc(C#N)cc3)c(-c3cnc4c(c3)OCCO4)n3cncc23)C1 [Example 62, (R)-4-(5-(2,3-dihydro-[1,4]dioxino[2,3-b]pyridin-7-yl)-8-((1-methylpiperidin-3-yl)methoxy)imidazo[1,5-a]pyridin-6-yl)benzonitrile]",≤ 0.05
2,"CN(C)C1CCN(c2nc(-c3ccc(C#N)cc3)c(-c3ccc4ncccc4c3)n3cncc23)CC1 [Example 145, 4-{8-[4-(dimethylamino)piperidin-1-yl]-5-quinolin-6-ylimidazo[1,5-a]pyrazin-6-yl}benzonitrile]",≤ 0.05
3,"Cc1ccc(-c2c(-c3ccc(C#N)cc3)nc(N3CCC(N(C)C)CC3)c3cncn23)cc1CO [Example 91, 4-{8-[4-(dimethylamino)piperidin-1-yl]-5-[3-(hydroxymethyl)-4-methylphenyl]imidazo[1,5-a]pyrazin-6-yl}benzonitrile]",≤ 0.05
4,"CN1CCC[C@@H](COc2cc(-c3ccc(C#N)cc3)c(-c3cnc4c(c3)oc(=O)n4C)n3cncc23)C1 [Example 57, (R)-4-(5-(3-methyl-2-oxo-2,3-dihydrooxazolo[4,5-b]pyridin-6-yl)-8-((1-methylpiperidin-3-yl)methoxy)imidazo[1,5-a]pyridin-6-yl)benzonitrile]",≤ 0.05
5,"CN(C)C1CCN(c2nc(-c3ccc(C#N)cc3)c(-c3cnc4ccccc4c3)n3cncc23)CC1 [Example 144, 4-{8-[4-(dimethylamino)piperidin-1-yl]-5-quinolin-3-ylimidazo[1,5-a]pyrazin-6-yl}benzonitrile]",≤ 0.05
6,"CN1CCC[C@@H](COc2cc(-c3ccc(C#N)cc3)c(-c3ccc4c(c3)OCC(=O)N4C)n3cncc23)C1 [Example 65, (R)-4-(5-(4-methyl-3-oxo-3,4-dihydro-2H-benzo[b][1,4]oxazin-7-yl)-8-((1-methylpiperidin-3-yl)methoxy)imidazo[1,5-a]pyridin-6-yl)benzonitrile]",≤ 0.05
7,"CN(C)C1CCN(c2nc(-c3ccc(C#N)cc3)c(-c3cnc4c(cnn4C)c3)n3cncc23)CC1 [Example 50, 4-[8-[4-(dimethylamino)piperidin-1-yl]-5-(1-methyl-1H-pyrazolo[3,4-b]pyridin-5-yl)imidazo[1,5-a]pyrazin-6-yl]benzonitrile]",≤ 0.05
8,"COC(=O)N(C)c1ccc(-c2c(-c3ccc(C#N)cc3)nc(N3CCC(N(C)C)CC3)c3cncn23)cc1 [Example 95, methyl (4-(6-(4-cyanophenyl)-8-(4-(dimethylamino)piperidin-1-yl)imidazo[1,5-a]pyrazin-5-yl)phenyl)(methyl)carbamate]",≤ 0.05
9,"CC(O)CN1CCC[C@@H](COc2cc(-c3ccc(C#N)cc3)c(-c3ccc4nccnc4c3)n3cncc23)C1 (stereo partly drawn) [Example 120, 4-(8-(((3R)-1-(2-hydroxypropyl)piperidin-3-yl)methoxy)-5-(quinoxalin-6-yl)imidazo[1,5-a]pyridin-6-yl)benzonitrile]",≤ 0.05
10,"CN1CCC[C@@H](COc2nc(-c3ccc(C#N)c(F)c3)c(-c3cnc4c(cnn4C)c3)n3cncc23)C1 [Example 36, 2-fluoro-4-[8-{[(3R)-1-methylpiperidin-3-yl]methoxy}-5-(1-methyl-1H-1-pyrazolo[3,4-b]pyridin-5-yl)imidazo[1,5-a]pyrazin-6-yl]benzonitrile]",≤ 0.05
11,"N#Cc1ccc(-c2cc(OC[C@@H]3CCNC3)c3cncn3c2-c2ccc3c(c2)OCCO3)cc1 [Example 16, 4-{5-(2,3-dihydro-1,4-benzodioxin-6-yl)-8-[(3R)-pyrrolidin-3-ylmethoxy]imidazo[1,5-a]pyridin-6-yl}benzonitrile]",≤ 0.05
12,"Cc1ccc(-c2c(-c3ccc([N+](=O)[O-])cc3)cc(OC[C@@H]3CCNC3)c3cncn23)cc1 [Example 3, 5-(4-methylphenyl)-6-(4-nitrophenyl)-8-[(3R)-pyrrolidin-3-ylmethoxy]imidazo[1,5-a]pyridine]",≤ 0.05
13,"Cc1nc2cc(-c3c(-c4ccc(C#N)cc4)nc(OC[C@@H]4CCCN(C)C4)c4cncn34)ccc2s1 [Example 35, 4-(5-(2-methyl-1,3-benzothiazol-5-yl)-8-{[(3R)-1-methylpiperidin-3-yl]methoxy}imidazo[1,5-a]pyrazin-6-yl)benzonitrile]",≤ 0.05
14,"COc1ccc(-c2c(-c3ccc(C#N)cc3)nc(N3CCC(N(C)C)CC3)c3cncn23)cn1 [Example 53, 4-[8-[4-(dimethylamino)piperidin-1-yl]-5-(6-methoxypyridin-3-yl)imidazo[1,5-a]pyrazin-6-yl]benzonitrile]",≤ 0.05
15,"COCCN1CCC[C@@H](COc2cc(-c3ccc(C#N)cc3)c(-c3cc(C)c(CO)c(F)c3)n3cncc23)C1 [Example 129, 4-(5-[3-fluoro-4-(hydroxymethyl)-5-methylphenyl]-8-{[(3R)-1-(2-methoxyethyl)piperidin-3-yl]methoxy}imidazo[1,5-a]pyridin-6-yl)benzonitrile]",≤ 0.05
16,"CN1CCC[C@@H](COc2cc(-c3ccc(C#N)cc3)c(-c3ccc(CN(C)C(=O)N(C)C)c(F)c3)n3cncc23)C1 [Example 82, N-[4-(6-(4-cyanophenyl)-8-{[(3R)-1-methylpiperidin-3-yl]methoxy}imidazo[1,5-a]pyridin-5-yl)-2-fluorobenzyl]-N,N′,N′-trimethylurea]",≤ 0.05
17,"CCOc1ccc(-c2c(-c3ccc(C#N)cc3)nc(N3CCC(N(C)C)CC3)c3cncn23)cn1 [Example 99, 4-[8-[4-(dimethylamino)piperidin-1-yl]-5-(6-ethoxypyridin-3-yl)imidazo[1,5-a]pyrazin-6-yl]benzonitrile]",≤ 0.05
18,"Cn1ncc2cc(-c3c(-c4ccc(C#N)cc4)cc(OC[C@@H]4CCNC4)c4cncn34)ccc21 [Example 11, 4-{5-(1-methyl-1H-indazol-5-yl)-8-[(3R)-pyrrolidin-3-ylmethoxy]imidazo[1,5-a]pyridin-6-yl}benzonitrile]",≤ 0.05
19,"CN(C)C1CCN(c2nc(-c3ccc(C#N)cc3)c(-c3ccc(OC(F)F)nc3)n3cncc23)CC1 [Example 98, 4-{5-[6-(difluoromethoxy)pyridin-3-yl]-8-[4-(dimethylamino)piperidin-1-yl]imidazo[1,5-a]pyrazin-6-yl}benzonitrile]",≤ 0.05
20,"Cc1ncc(-c2c(-c3ccc(C#N)cc3)nc(N3CCC(N(C)C)CC3)c3cncn23)cc1CO [Example 142, 4-{8-[4-(dimethylamino)piperidin-1-yl]-5-[5-(hydroxymethyl)-6-methylpyridin-3-yl]imidazo[1,5-a]pyrazin-6-yl}benzonitrile]",≤ 0.05
21,"Cc1ncc(-c2c(-c3ccc(C#N)cc3)cc(OC[C@@H]3CCCN(C)C3)c3cncn23)cc1F [Example 127, 4-(5-(5-fluoro-6-methylpyridin-3-yl)-8-{[(3R)-1-methylpiperidin-3-yl]methoxy}imidazo[1,5-a]pyridin-6-yl)benzonitrile]",≤ 0.05
22,"Cc1ccc(-c2c(-c3ccc(C#N)cc3)cc(OC[C@@H]3CCNC3)c3cncn23)cc1 [Example 1, 4-{5-(4-methylphenyl)-8-[(3R)-pyrrolidin-3-ylmethoxy]imidazo[1,5-a]pyridin-6-yl}benzonitrile]",≤ 0.05
23,"CN1CCC[C@@H](COc2nc(-c3ccc(C#N)cc3)c(-c3cc4oc(=O)n(C)c4cc3F)n3cncc23)C1 [Example 30, 4-(5-(5-fluoro-3-methyl-2-oxo-2,3-dihydro-1,3-benzoxazol-6-yl)-8-{[(3R)-1-methylpiperidin-3-yl]methoxy}imidazo[1,5-a]pyrazin-6-yl)benzonitrile]",≤ 0.05
24,"CCC1CC=C(c2c(-c3ccc(C#N)cc3)cc(OC[C@@H]3CCNC3)c3cncn23)CC1 (stereo partly drawn) [Example 9, 4-{5-(4-ethylcyclohex-1-en-1-yl)-8-[(3R)-pyrrolidin-3-ylmethoxy]imidazol[1,5-a]pyridin-6-yl}benzonitrile]",≤ 0.05
25,"Cc1ccc(-c2c(-c3ccc(C#N)cc3)cc(OC[C@@H]3CCNC3)c3cncn23)c(F)c1 [Example 8, 4-{5-(2-fluoro-4-methylphenyl)-8-[(3R)-pyrrolidin-3-ylmethoxy]imidazo[1,5-a]pyridin-6-yl}benzonitrile]",≤ 0.05
26,"COc1ncc(-c2c(-c3ccc(C#N)cc3)cc(OC[C@@H]3CCCN(C)C3)c3cncn23)cc1F [Example 70, (R)-4-(5-(5-fluoro-6-methoxypyridin-3-yl)-8-((1-methylpiperidin-3-yl)methoxy)imidazo[1,5-a]pyridin-6-yl)benzonitrile]",≤ 0.05
27,"CN(C)C1CCN(c2nc(-c3ccc(C#N)cc3)c(-c3ccc4c(cnn4C)c3)n3cncc23)CC1 [Example 100, 4-[8-[4-(dimethylamino)piperidin-1-yl]-5-(1-methyl-1H-indazol-5-yl)imidazo[1,5-a]pyrazin-6-yl]benzonitrile]",≤ 0.05
28,"CN1C(=O)Cc2cc(-c3c(-c4ccc(C#N)cc4)cc(OC[C@@H]4CCNC4)c4cncn34)ccc21 [Example 12, 4-{5-(1-methyl-2-oxo-2,3-dihydro-1H-indol-5-yl)-8-[(3R)-pyrrolidin-3-ylmethoxy]imidazo-[1,5-a]pyridin-6-yl}benzonitrile]",≤ 0.05
29,"CN(C)C1CCN(c2nc(-c3ccc(C#N)cc3)c(-c3cnc4c(ccn4C)c3)n3cncc23)CC1 [Example 84, 4-(8-(4-(dimethylamino)piperidin-1-yl)-5-(1-methyl-1H-pyrrolo[2,3-b]pyridin-5-yl)imidazo[1,5-a]pyrazin-6-yl)benzonitrile]",≤ 0.05
30,"COCCN1CCC[C@@H](COc2cc(-c3ccc(C#N)cc3)c(-c3cnc4c(c3)CCCO4)n3cncc23)C1 [Example 122, (R)-4-(5-(3,4-dihydro-2H-pyrano[2,3-b]pyridin-6-yl)-8-((1-(2-methoxyethyl)piperidin-3-yl)methoxy)imidazo[1,5-a]pyridin-6-yl)benzonitrile]",≤ 0.05
